Drawing on patent US10202339B2, “Therapeutic compounds and compositions” (AGIOS PHARMACEUTICALS, INC., priority 2012, dated 2019), this text covers IC50 for 34 compounds.

Where only a bound is given, the exact number is not on record here.

For this assay, the target named is IDH2 R140Q (Homo sapiens (Human), UniProt P48735, R140Q). In words: IDH2 R140Q enzymatic cofactor depletion assay (diaphorase/resazurin). Conditions: IDH2 R140Q enzyme, one hour preincubation with compound, one hour reaction; read-out: Enz R140Q. It counts as biochemical. How it is done: The reaction was terminated by the addition of a second enzyme, diaphorase, and a corresponding substrate, resazurin. Diaphorase reduces resazurin to the highly fluorescent resorufin with the concomitant oxidation of NADPH to NADP, both halting the IDH2 reaction by depleting the available cofactor pool and facilitating quantitation of the amount of cofactor remaining after a specific time period through quantitative production of an easily detected fluorophore.
IDH2 R140Q, sequence (P48735 40-452 R140Q): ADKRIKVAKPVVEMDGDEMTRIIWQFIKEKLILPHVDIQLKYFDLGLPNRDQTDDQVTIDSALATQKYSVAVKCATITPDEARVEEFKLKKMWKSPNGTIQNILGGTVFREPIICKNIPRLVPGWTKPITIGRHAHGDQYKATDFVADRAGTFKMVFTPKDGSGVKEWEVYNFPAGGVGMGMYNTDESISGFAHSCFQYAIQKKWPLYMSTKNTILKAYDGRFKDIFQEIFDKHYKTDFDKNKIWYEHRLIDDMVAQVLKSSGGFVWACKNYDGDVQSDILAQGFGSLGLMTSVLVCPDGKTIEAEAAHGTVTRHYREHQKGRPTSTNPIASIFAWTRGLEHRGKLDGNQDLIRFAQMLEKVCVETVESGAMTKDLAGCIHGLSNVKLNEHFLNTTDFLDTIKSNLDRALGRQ
The compound was then incubated for one hour at room temperature with the enzyme; before starting the IDH2 reaction with the addition of 10 μl of substrate mix containing 50 μM NADPH and 6.3 mM α-KG in the buffer described above. After a further one hour of incubation at room temperature, the reaction was halted and the remaining NADPH measured through conversion of resazurin to resorufin by the addition of 25 μl Stop Mix (36 μg/ml diaphorase enzyme and 60 μM resazurin; in buffer). After one minute of incubation the plate was read on a plate reader at Ex544/Em590.

With “2-(3-(1-methyl-1H-pyrazol-5-yl)ureido)-N-(2,2,2-trifluoroethyl)-[1,1′-biphenyl]-4-sulfonamide [Compound 77]”, the IC50 fell in the range of 100 to 1000 nM.

Turning to “3′-methyl-N-morpholino-2-(3-(3-(trifluoromethyl)phenyl)ureido)-[1,1′-biphenyl]-4-sulfonamide [Compound 49]”, the IC50 fell in the range of 100 to 1000 nM.

`O=C(Nc1ccccc1)Nc1cc(S(=O)(=O)Nc2ccccc2)ccc1-c1ccsc1` [Compound 1, N-phenyl-3-(3-phenylureido)-4-(thiophen-3-yl)benzenesulfonamide]: the IC50 lay within 100 to 1000 nM.

In the case of `Cc1ccccc1NC(=O)Nc1cc(S(=O)(=O)Nc2ccccc2)ccc1-c1ccsc1` [Compound 2, N-phenyl-4-(thiophen-3-yl)-3-(3-(o-tolyl)ureido)benzenesulfonamide], the IC50 was in the range of 100 to 1000 nM.

As for `Cc1cccc(NC(=O)Nc2cc(S(=O)(=O)Nc3ccccc3)ccc2-c2ccsc2)c1` [Compound 3, N-phenyl-4-(thiophen-3-yl)-3-(3-(m-tolyl)ureido)benzenesulfonamide], the IC50 lay within 100 to 1000 nM.

With `CCc1ccccc1NC(=O)Nc1cc(S(=O)(=O)Nc2ccccc2)ccc1-c1ccsc1` [Compound 4, 3-(3-(2-ethylphenyl)ureido)-N-phenyl-4-(thiophen-3-yl)benzenesulfonamide], the IC50 fell in the range of 100 to 1000 nM.

As for `CCc1cccc(NC(=O)Nc2cc(S(=O)(=O)Nc3ccccc3)ccc2-c2ccsc2)c1` [Compound 5, 3-(3-(3-ethylphenyl)ureido)-N-phenyl-4-(thiophen-3-yl)benzenesulfonamide], the IC50 lay within 100 to 1000 nM.

`COc1ccccc1NC(=O)Nc1cc(S(=O)(=O)Nc2ccccc2)ccc1-c1ccsc1` [Compound 6, 3-(3-(2-methoxyphenyl)ureido)-N-phenyl-4-(thiophen-3-yl)benzenesulfonamide]: the IC50 was in the range of 100 to 1000 nM.

`COc1cccc(NC(=O)Nc2cc(S(=O)(=O)Nc3ccccc3)ccc2-c2ccsc2)c1` [Compound 7, 3-(3-(3-methoxyphenyl)ureido)-N-phenyl-4-(thiophen-3-yl)benzenesulfonamide]: the IC50 fell in the range of 100 to 1000 nM.

`O=C(Nc1cccc(Cl)c1)Nc1cc(S(=O)(=O)Nc2ccccc2)ccc1-c1ccsc1` [Compound 8, 3-(3-(3-chlorophenyl)ureido)-N-phenyl-4-(thiophen-3-yl)benzenesulfonamide]: the IC50 was 100 to 1000 nM.

Turning to `O=C(Nc1ccccc1F)Nc1cc(S(=O)(=O)Nc2ccccc2)ccc1-c1ccsc1` [Compound 9, 3-(3-(2-fluorophenyl)ureido)-N-phenyl-4-(thiophen-3-yl)benzenesulfonamide], the IC50 was 100 to 1000 nM.

For the compound `O=C(Nc1cc(S(=O)(=O)Nc2ccccc2)ccc1-c1ccsc1)Nc1ccccc1C(F)(F)F` [Compound 10, N-phenyl-4-(thiophen-3-yl)-3-(3-(2-(trifluoromethyl)phenyl)ureido)benzenesulfonamide], the IC50 fell in the range of 100 to 1000 nM.

`Cc1ccc(C)c(NC(=O)Nc2cc(S(=O)(=O)Nc3ccccc3)ccc2-c2ccsc2)c1` [Compound 11, 3-(3-(2,5-dimethylphenyl)ureido)-N-phenyl-4-(thiophen-3-yl)benzenesulfonamide]: the IC50 lay in the range of 100 to 1000 nM.

`Cc1ccc(F)c(NC(=O)Nc2cc(S(=O)(=O)Nc3ccccc3)ccc2-c2ccsc2)c1` [Compound 12, 3-(3-(2-fluoro-5-methylphenyl)ureido)-N-phenyl-4-(thiophen-3-yl)benzenesulfonamide]: the IC50 is 100 to 1000 nM.

With `O=C(Nc1ccccc1O)Nc1cc(S(=O)(=O)Nc2ccccc2)ccc1-c1ccsc1` [Compound 13], the IC50 fell in the range of 1000 to 10000 nM.

For the compound `CC(C)c1cccc(NC(=O)Nc2cc(S(=O)(=O)Nc3ccccc3)ccc2-c2ccsc2)c1` [Compound 14], the IC50 was 1000 to 10000 nM.

In the case of `Cc1cccc(C)c1NC(=O)Nc1cc(S(=O)(=O)Nc2ccccc2)ccc1-c1ccsc1` [Compound 15], the IC50 was in the range of 1000 to 10000 nM.

Take `Cc1cc(C)cc(NC(=O)Nc2cc(S(=O)(=O)Nc3ccccc3)ccc2-c2ccsc2)c1` [Compound 16]: the IC50 lay in the range of 1000 to 10000 nM.

For `Cc1ccc(NC(=O)Nc2cc(S(=O)(=O)Nc3ccccc3)ccc2-c2ccsc2)cc1C` [Compound 17], the IC50 lay within 1000 to 10000 nM.

As to `O=C(Nc1ccc(F)cc1)Nc1cc(S(=O)(=O)Nc2ccccc2)ccc1-c1ccsc1` [Compound 18], the IC50 is 1000 to 10000 nM.

Take `O=C(Nc1ccc(F)c(Cl)c1)Nc1cc(S(=O)(=O)Nc2ccccc2)ccc1-c1ccsc1` [Compound 19]: the IC50 lay in the range of 1000 to 10000 nM.

As for `O=C(Nc1ccc(F)c(F)c1)Nc1cc(S(=O)(=O)Nc2ccccc2)ccc1-c1ccsc1` [Compound 20], the IC50 was in the range of 1000 to 10000 nM.

With `O=C(Nc1ccc(F)c(C(F)(F)F)c1)Nc1cc(S(=O)(=O)Nc2ccccc2)ccc1-c1ccsc1` [Compound 21], the IC50 was in the range of 1000 to 10000 nM.

As for `O=C(Nc1ccccn1)Nc1cc(S(=O)(=O)Nc2ccccc2)ccc1-c1ccsc1` [Compound 22], the IC50 lay within 1000 to 10000 nM.

As to `O=C(Nc1ncco1)Nc1cc(S(=O)(=O)Nc2ccccc2)ccc1-c1ccsc1` [Compound 23], the IC50 was 1000 to 10000 nM.

For `CC1CCC(NC(=O)Nc2cc(S(=O)(=O)Nc3ccccc3)ccc2-c2ccsc2)CC1` (stereo not shown) [Compound 24], the IC50 fell in the range of 1000 to 10000 nM.

Consider `O=C(Nc1ccccc1Cl)Nc1cc(S(=O)(=O)NC2CC2)ccc1-c1ccsc1` [Compound 25, 3-(3-(2-chlorophenyl)ureido)-N-cyclopropyl-4-(thiophen-3-yl)benzenesulfonamide], for which the IC50 lay in the range of 100 to 1000 nM.

For `O=C(Nc1cc(Cl)cc(Cl)c1)Nc1cc(S(=O)(=O)NC2CC2)ccc1-c1ccsc1` [Compound 26], the IC50 is 1000 to 10000 nM.

As to `O=C(Nc1cc(S(=O)(=O)NC2CC2)ccc1-c1ccsc1)Nc1cccc(Cl)c1Cl` [Compound 27, N-cyclopropyl-3-(3-(2,3-dichlorophenyl)ureido)-4-(thiophen-3-yl)benzenesulfonamide], the IC50 was 100 to 1000 nM.

`O=C(Nc1cc(S(=O)(=O)NC2CC2)ccc1-c1ccsc1)Nc1ccc(F)cc1C(F)(F)F` [Compound 28, N-cyclopropyl-3-(3-(4-fluoro-2-(trifluoromethyl)phenyl)ureido)-4-(thiophen-3-yl)benzenesulfonamide]: the IC50 lay in the range of 100 to 1000 nM.

For `Cc1cncc(NC(=O)Nc2cc(S(=O)(=O)NC3CC3)ccc2-c2ccsc2)c1` [Compound 29, N-cyclopropyl-3-(3-(5-methylpyridin-3-yl)ureido)-4-(thiophen-3-yl)benzenesulfonamide], the IC50 is 1000 to 10000 nM.

As for `N#CC1(NS(=O)(=O)c2ccc(-c3ccsc3)c(NC(=O)Nc3cccc(C(F)(F)F)c3)c2)CC1` [Compound 31, N-(1-cyanocyclopropyl)-4-(thiophen-3-yl)-3-(3-(3-(trifluoromethyl)phenyl)ureido)benzenesulfonamide], the IC50 is under 100 nM.

As for `O=C(Nc1cccc(C(F)(F)F)c1)Nc1cc(S(=O)(=O)NC2COC2)ccc1-c1ccsc1` [Compound 32, N-(oxetan-3-yl)-4-(thiophen-3-yl)-3-(3-(3-(trifluoromethyl)phenyl)ureido)benzenesulfonamide], the IC50 was under 100 nM.

As to `O=C(Nc1ccccc1F)Nc1cc(S(=O)(=O)NCC(F)(F)F)ccc1-c1ccccc1` [Compound 33, 2-(3-(2-fluorophenyl)ureido)-N-(2,2,2-trifluoroethyl)-[1,1′-biphenyl]-4-sulfonamide], the IC50 lay within 100 to 1000 nM.
